Measured values from patent US20240215587A1 (priority 2020, published 2024).
Where two headings read alike, the source gives them in different places.

How the values were obtained:
[1] = test system: pathogen of bacterial leaf streak (Xanthomonas oryzaes pv. Oryzicola); format: cell-based; conditions: for Inhibition rate of bacterial growth (%): immersed 24 h, growth observed after 3 d
rice seeds = conditions: seed soaking 24 h, tested after 6 d

Structure (SMILES): CCCCCCCCCCCC[N+](C)(C)Cc1ccccc1.[Br-] [Dodecyl dimethyl benzyl ammonium bromide, dodecyl dimethyl benzyl ammonium bromide]
- inhibitory effect on the pathogen of bacterial leaf streak of rice (in words) ([1]; dilutions 1:500 to 1:2000): a certain inhibitory effect
- Inhibition rate of bacterial growth (%) ([1]; multiple for dilution 500): 41%
- Inhibition rate of bacterial growth (%) ([1]; multiple for dilution 1000): 32%
- Inhibition rate of bacterial growth (%) ([1]; multiple for dilution 1500): 30%
- Inhibition rate of bacterial growth (%) ([1]; multiple for dilution 2000): 23%
- Bud length (mm) (rice seeds; multiple for dilution 1500): 21 mm
- Germination rate of seed (%) (rice seeds; multiple for dilution 1500): 55%
- Root length (mm) (rice seeds; multiple for dilution 1500): 20 mm
- Bud length (mm) (rice seeds; multiple for dilution 2000): 26 mm
- Germination rate of seed (%) (rice seeds; multiple for dilution 2000): 56%
- Root length (mm) (rice seeds; multiple for dilution 2000): 28 mm
